System: 233499-124-R-J3-PDC spheroids with HUVEC/MSC, viability
Experiment: Anticancer human tumor 233499-124-R-J3-PDC patient-derived colon adenocarcinoma cell line growth inhibition [PI3K]
Settings: for IC50: curve of first compound; for viability, T/C: stronger effect = lower value
In short: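 Tumor cells grown as multi-cell spheroids with HUVEC endothelial cells and MSC fibroblast-like stroma were treated with targeted agents combined with inavolisib, alpelisib, duvelisib or copanlisib. Doses fell in half-log steps from near clinical Cmax, else from 10 microM. Viability was measured.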
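Note: spheroids exposed to agents for seven days before readout.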
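Throughout, for viability, T/C: percent viability relative to DMSO vehicle control taken as 100%.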

C=CC(=O)N1CCN(c2nc(=O)n(-c3c(C)ccnc3C(C)C)c3nc(-c4c(O)cccc4F)c(F)cc23)C(C)C1 (configuration not stated) + CC(Nc1ccc2c(c1)OCCn1cc(N3C(=O)OCC3C(F)F)nc1-2)C(N)=O
IC50 (second compound 0.00316 µM): > 10 µM
IC50 (second compound 0.01 µM): > 10 µM
IC50 (second compound 0.0316 µM): > 10 µM
IC50 (second compound 0.1 µM): > 10 µM
IC50 (second compound 0.316 µM): > 10 µM
IC50 (second compound 1 µM): > 10 µM
viability, T/C (second compound 0.00316 µM, first compound 0.0316 µM): 101%
viability, T/C (second compound 0.00316 µM, first compound 0.1 µM): 87.5%
viability, T/C (second compound 0.00316 µM, first compound 0.316 µM): 87.9%
viability, T/C (second compound 0.00316 µM, first compound 1 µM): 113%
viability, T/C (second compound 0.00316 µM, first compound 3.16 µM): 100%
viability, T/C (second compound 0.00316 µM, first compound 10 µM): 100%
viability, T/C (second compound 0.01 µM, first compound 0.0316 µM): 85.9%
viability, T/C (second compound 0.01 µM, first compound 0.1 µM): 88.8%
viability, T/C (second compound 0.01 µM, first compound 0.316 µM): 77.5%
viability, T/C (second compound 0.01 µM, first compound 1 µM): 95.6%
viability, T/C (second compound 0.01 µM, first compound 3.16 µM): 97.5%
viability, T/C (second compound 0.01 µM, first compound 10 µM): 86.2%
viability, T/C (second compound 0.0316 µM, first compound 0.0316 µM): 85.8%
viability, T/C (second compound 0.0316 µM, first compound 0.1 µM): 106%
viability, T/C (second compound 0.0316 µM, first compound 0.316 µM): 91.4%
viability, T/C (second compound 0.0316 µM, first compound 1 µM): 92.8%
viability, T/C (second compound 0.0316 µM, first compound 3.16 µM): 93.5%
viability, T/C (second compound 0.0316 µM, first compound 10 µM): 84.6%
viability, T/C (second compound 0.1 µM, first compound 0.0316 µM): 103%
viability, T/C (second compound 0.1 µM, first compound 0.1 µM): 94.5%
viability, T/C (second compound 0.1 µM, first compound 0.316 µM): 91.3%
viability, T/C (second compound 0.1 µM, first compound 1 µM): 83%
viability, T/C (second compound 0.1 µM, first compound 3.16 µM): 87%
viability, T/C (second compound 0.1 µM, first compound 10 µM): 57.1%
viability, T/C (second compound 0.316 µM, first compound 0.0316 µM): 92.7%
viability, T/C (second compound 0.316 µM, first compound 0.1 µM): 80.5%
viability, T/C (second compound 0.316 µM, first compound 0.316 µM): 80.8%
viability, T/C (second compound 0.316 µM, first compound 1 µM): 77.4%
viability, T/C (second compound 0.316 µM, first compound 3.16 µM): 71%
viability, T/C (second compound 0.316 µM, first compound 10 µM): 85.5%
viability, T/C (second compound 1 µM, first compound 0.0316 µM): 61%
viability, T/C (second compound 1 µM, first compound 0.1 µM): 67.7%
viability, T/C (second compound 1 µM, first compound 0.316 µM): 44.3%
viability, T/C (second compound 1 µM, first compound 1 µM): 56.3%
viability, T/C (second compound 1 µM, first compound 3.16 µM): 63.6%
viability, T/C (second compound 1 µM, first compound 10 µM): 66.9%
